IC50 data for 15 molecules are collected here from patent US9493444B2 (Merck Patent GmbH, priority 2012, dated 2016).

The structures appear in SMILES notation.

The test system of the assay is Wnt pathway (TCF-dependent transcription in HEK293 luciferase reporter cell line with ER-DSH construct). Briefly: Cellular assay for Wnt pathway activity (luciferase reporter). The conditions noted are these: Homo sapiens; Wnt pathway inhibition, HEK293 luciferase reporter cells (ER-DSH, TCF promoter), 24 hours incubation, estrogen-induced. The assay is classed as cell-based. The essentials:
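Compounds (30 μM down to 1 nM) were incubated 24 h on cells induced for TCF-dependent transcription with estrogen. Luciferase activity was read by luminescence, normalized to untreated vehicle control, and fitted for IC50.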
A general note: A reporter such as luciferase makes a cellular process visible.
For `CC(=O)N(C)CCNc1cncc(Oc2ccc(-c3ccc(C#N)nc3)cc2)n1` [Compound 276, N-(2-{6-[4-(6-Cyano-pyridin-3-yl)-phenoxy]-pyrazin-2-ylamino}-ethyl)-N-methyl-acetamide], the 50% inhibitory concentration (IC50) – broadly, the concentration needed to halve the response being measured – is 200 to 1000 nM. `CC(=O)N(C)CCN(C)c1cncc(Oc2ccc(C(=O)N3CCCC(c4cccn4C)=N3)cc2)n1` [Compound 126, N-Methyl-N-{2-[methyl-(6-{4-[3-(1-methyl-1H-pyrrol-2-yl)-5,6-dihydro-4H-pyridazine-1-carbonyl]-phenoxy}-pyrazin-2-yl)-amino]-ethyl} acetamide] returned a concentration for half-maximal inhibition (IC50) of 1000 to 10000 nM. As for `CCc1ccc(Oc2cncc(N(C)CCN(C)C(C)=O)n2)cc1` [Compound 97, N-(2-{[6-(4-Ethyl-phenoxy)-pyrazin-2-yl]-methyl-amino}-ethyl)-N-methyl-acetamide], the IC50 is < 200 nM. In the case of `CC(=O)N(C)CCN(C)c1cncc(Oc2ccc(N3CCCCC3=O)cc2)n1` [Compound 86, N-Methyl-N-[2-(methyl-{6-[4-(2-oxo-piperidin-1-yl)-phenoxy]-pyrazin-2-yl}-amino)-ethyl]-acetamide], the IC50 lay within 200 to 1000 nM. Take `CC(=O)N(C)CCN(C)c1cncc(OC2Cc3ccccc3C2)n1` [Compound 223, N-(2-{[6-(Indan-2-yloxy)-pyrazin-2-yl]-methyl-amino}-ethyl)-N-methyl-acetamide]: the IC50 was in the range of 200 to 1000 nM.

In the case of `CNC(=O)CCN(C)c1cncc(Oc2ccc(-c3ccc(C)cn3)cc2)n1` [Compound 247, N-Methyl-3-(methyl-{6-[4-(5-methyl-pyridin-2-yl)-phenoxy]-pyrazin-2-yl}-amino)-propionamide], the IC50 was < 200 nM. For `CC(=O)N(C)CCCc1cncc(Oc2ccc(-c3ccc(C)cn3)cc2F)n1` [Compound 268, N-(3-{6-[2-Fluoro-4-(5-methyl-pyridin-2-yl)-phenoxy]-pyrazin-2-yl}-propyl)-N-methyl-acetamide], the IC50 is < 200 nM. In turn, `CC(=O)N(C)CCN(C)c1cncc(Oc2ccc(-c3cc(N)ccn3)cc2)n1` [Compound 172, N-[2-({6-[4-(4-Amino-pyridin-2-yl)-phenoxy]-pyrazin-2-yl}-methyl-amino)-ethyl]-N-methyl-acetamide] displayed an IC50 of 200 to 1000 nM. On to `CC(=O)N(C)CCN(C)c1cncc(Oc2ccc(-c3cccc(N)n3)cc2)n1` [Compound 205, N-[2-({6-[4-(6-Amino-pyridin-2-yl)-phenoxy]-pyrazin-2-yl}-methyl-amino)-ethyl]-N-methyl-acetamide], for which the IC50 is < 200 nM.

`COc1ccc(Oc2cncc(N(C)CCN(C)C(=O)Cc3ccc(F)cc3)n2)cc1` [Compound 63, 2-(4-Fluoro-phenyl)-N-(2-{[6-(4-methoxy-phenoxy)-pyrazin-2-yl]-methyl-amino}-ethyl)-N-methyl-acetamide] returned a half-maximal inhibitory concentration (IC50) of 1000 to 10000 nM. `CC(=O)N(CCN(c1cncc(Oc2ccc(F)cc2)n1)C(C)C)C(C)C` [Compound 168, N-(2-{[6-(4-Fluoro-phenoxy)pyrazin-2-yl]-isopropyl-amino}-ethyl)-N-isopropyl-acetamide] returned an IC50 of 200 to 1000 nM. The molecule `CC(=O)N(C)CCN(C)c1cncc(Oc2cccc(N(C)C)c2)n1` [Compound 114, N-(2-{[6-(3-Dimethyl-amino-phenoxy)-pyrazin-2-yl]-methyl-amino}-ethyl)-N-methyl-acetamide] yielded an IC50 of 1000 to 10000 nM. Regarding `CC(=O)N(C)CCSc1cncc(Oc2ccc(-c3ccc(C)cn3)cc2)n1` [Compound 153, N-Methyl-N-(2-{6-[4-(5-methyl-pyridin-2-yl)-phenoxy]-pyrazin-2-ylsulfanyl}-ethyl)-acetamide], the IC50 was < 200 nM. On to `CC(=O)N(C)CCN(C)c1cncc(Oc2ccc(-c3cnc(N)cn3)cc2)n1` [Compound 185, N-[2-({6-[4-(5-Amino-pyrazin-2-yl)-phenoxy]-pyrazin-2-yl}-methyl-amino)-ethyl]-N-methyl-acetamide], for which the half-maximal inhibitory concentration (IC50) is < 200 nM.

As to `CN(CCN1CCCCC1=O)c1cncc(Oc2ccc(F)cc2)n1` [Compound 116, 1-(2-{[6-(4-Fluoro-phenoxy)-pyrazin-2-yl]-methyl-amino}-ethyl)-piperidin-2-one], the half-inhibitory concentration (IC50) is < 200 nM.
